Activity calls are given as the source filed them. No cut-off for these calls is given here.
How the values were obtained:
[1] = target: T1, Protein cereblon/Non-receptor tyrosine-protein kinase TYK2 (Homo sapiens, UniProt P29597+Q96SW2); assay: PROTAC activity at CRBN/TYK2 in human Jurkat cells assessed as induction of degradation of TYK2 at 100 ug/ml measured after 10 hrs by Western blot analysis; assay type: cell-based; conditions: dose 100.0 µg/ml
Target sequence in this assay (P29597 whole entry, looked up): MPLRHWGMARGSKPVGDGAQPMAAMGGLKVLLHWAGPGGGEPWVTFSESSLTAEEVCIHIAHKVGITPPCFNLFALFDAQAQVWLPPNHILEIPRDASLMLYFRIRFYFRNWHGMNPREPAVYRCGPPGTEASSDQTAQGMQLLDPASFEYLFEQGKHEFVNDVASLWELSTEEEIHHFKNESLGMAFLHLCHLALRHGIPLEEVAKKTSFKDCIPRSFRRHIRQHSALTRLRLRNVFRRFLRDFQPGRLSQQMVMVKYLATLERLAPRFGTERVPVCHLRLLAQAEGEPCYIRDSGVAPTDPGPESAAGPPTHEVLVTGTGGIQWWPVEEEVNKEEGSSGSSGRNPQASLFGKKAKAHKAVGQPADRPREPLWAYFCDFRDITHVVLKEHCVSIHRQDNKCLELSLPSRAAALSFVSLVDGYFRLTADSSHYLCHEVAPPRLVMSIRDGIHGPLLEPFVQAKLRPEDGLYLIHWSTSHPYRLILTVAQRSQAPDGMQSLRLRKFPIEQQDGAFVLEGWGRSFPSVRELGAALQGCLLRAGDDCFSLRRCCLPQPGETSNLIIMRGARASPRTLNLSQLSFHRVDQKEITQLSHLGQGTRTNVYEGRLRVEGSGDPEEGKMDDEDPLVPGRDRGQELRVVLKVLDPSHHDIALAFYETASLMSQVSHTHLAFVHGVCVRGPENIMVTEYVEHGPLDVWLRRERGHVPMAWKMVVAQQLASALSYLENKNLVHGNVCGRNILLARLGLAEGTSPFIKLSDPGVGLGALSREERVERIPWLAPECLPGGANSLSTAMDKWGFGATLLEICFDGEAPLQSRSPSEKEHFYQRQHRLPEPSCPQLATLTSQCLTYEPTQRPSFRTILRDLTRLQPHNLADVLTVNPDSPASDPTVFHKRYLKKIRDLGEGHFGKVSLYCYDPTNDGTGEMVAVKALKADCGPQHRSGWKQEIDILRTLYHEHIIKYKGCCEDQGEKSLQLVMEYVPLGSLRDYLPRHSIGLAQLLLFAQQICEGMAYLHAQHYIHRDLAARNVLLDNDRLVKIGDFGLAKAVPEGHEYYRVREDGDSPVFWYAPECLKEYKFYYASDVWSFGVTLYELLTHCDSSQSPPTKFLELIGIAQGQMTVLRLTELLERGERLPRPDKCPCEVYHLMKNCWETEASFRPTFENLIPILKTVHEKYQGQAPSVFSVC
Target sequence in this assay (Q96SW2 whole entry, looked up): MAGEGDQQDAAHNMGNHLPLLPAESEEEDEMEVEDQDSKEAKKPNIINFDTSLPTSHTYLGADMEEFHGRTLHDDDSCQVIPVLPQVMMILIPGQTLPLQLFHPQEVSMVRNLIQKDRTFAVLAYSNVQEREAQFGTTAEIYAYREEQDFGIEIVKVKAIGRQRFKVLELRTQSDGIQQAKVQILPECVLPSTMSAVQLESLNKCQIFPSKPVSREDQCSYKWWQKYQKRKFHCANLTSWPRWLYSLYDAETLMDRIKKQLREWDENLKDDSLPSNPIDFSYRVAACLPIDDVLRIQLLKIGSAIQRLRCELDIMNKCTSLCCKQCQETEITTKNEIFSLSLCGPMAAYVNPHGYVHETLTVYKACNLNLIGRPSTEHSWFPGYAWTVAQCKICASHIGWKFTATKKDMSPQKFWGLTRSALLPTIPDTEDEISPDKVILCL

[2] = target: T1, Protein cereblon/Non-receptor tyrosine-protein kinase TYK2; assay: PROTAC activity at CRBN/TYK2 in human Jurkat cells assessed as induction of degradation of TYK2 at 10 nM measured after 10 hrs by Western blot analysis relative to control; assay type: cell-based
Target sequence in this assay (P29597 whole entry, looked up): as the sequence (P29597 whole entry, looked up) above
Target sequence in this assay (Q96SW2 whole entry, looked up): as the sequence (Q96SW2 whole entry, looked up) above

[3] = target: T1, Protein cereblon/Non-receptor tyrosine-protein kinase TYK2; assay: PROTAC activity at CRBN/TYK2 in human Jurkat cells assessed as induction of degradation of TYK2 at 1 nM measured after 10 hrs by Western blot analysis relative to control; assay type: cell-based
Target sequence in this assay (P29597 whole entry, looked up): as the sequence (P29597 whole entry, looked up) above
Target sequence in this assay (Q96SW2 whole entry, looked up): as the sequence (Q96SW2 whole entry, looked up) above

[4] = target: T1, Protein cereblon/Non-receptor tyrosine-protein kinase TYK2; assay: PROTAC activity at CRBN/TYK2 in human Jurkat cells assessed as induction of degradation of TYK2 at 100 nM measured after 10 hrs by Western blot analysis relative to control; assay type: cell-based
Target sequence in this assay (P29597 whole entry, looked up): as the sequence (P29597 whole entry, looked up) above
Target sequence in this assay (Q96SW2 whole entry, looked up): as the sequence (Q96SW2 whole entry, looked up) above

[5] = Inhibition of TYK2 dependent STAT3 phosphorylation in IL-6 stimulated human PBMC cells preincubated for 60 mins followed by IL-6 stimulation and measured after 60 mins by FACS assay; assay type: cell-based
[6] = Inhibition of TYK2 dependent STAT3 phosphorylation in IL-12 stimulated human PBMC cells preincubated for 60 mins followed by IL-12 stimulation and measured after 60 mins by FACS assay; assay type: cell-based
[7] = Cmax in male ICR mouse at 1 mg/kg, iv measured up to 24 hrs by LC-MS/MS analysis; assay type: ADME, organism-based; conditions: in vivo
[8] = AUC (0 to t) in male ICR mouse at 10 mg/kg, po measured up to 24 hrs by LC-MS/MS analysis; assay type: ADME, organism-based; conditions: in vivo
[9] = Tmax in male ICR mouse at 10 mg/kg, po measured up to 24 hrs by LC-MS/MS analysis; assay type: ADME, organism-based; conditions: in vivo
[10] = Tmax in male ICR mouse at 1 mg/kg, iv measured up to 24 hrs by LC-MS/MS analysis; assay type: ADME, organism-based; conditions: in vivo
[11] = AUC (0 to t) in male ICR mouse at 1 mg/kg, iv measured up to 24 hrs by LC-MS/MS analysis; assay type: ADME, organism-based; conditions: in vivo
[12] = AUC (0 to infinity) in male ICR mouse at 10 mg/kg, po measured up to 24 hrs by LC-MS/MS analysis; assay type: ADME, organism-based; conditions: in vivo
[13] = Cmax in male ICR mouse at 10 mg/kg, po measured up to 24 hrs by LC-MS/MS analysis; assay type: ADME, organism-based; conditions: in vivo
[14] = Apparent permeability of the compound in human Caco-2 cells at 10 uM measured up to 120 min by LC-MS/MS analysis; assay type: ADME, cell-based
[15] = Half life in male ICR mouse at 10 mg/kg, po measured up to 24 hrs by LC-MS/MS analysis; assay type: ADME, organism-based; conditions: in vivo
[16] = Metabolic stability in mouse liver microsomes assessed as half life measured up to 120 mins by LC-MS/MS analysis; assay type: ADME, Microsome
[17] = Half life in male ICR mouse at 1 mg/kg, iv measured up to 24 hrs by LC-MS/MS analysis; assay type: ADME, organism-based; conditions: in vivo
[18] = AUC (0 to infinity) in male ICR mouse at 1 mg/kg, iv measured up to 24 hrs by LC-MS/MS analysis; assay type: ADME, organism-based; conditions: in vivo
[19] = Oral bioavailability in male ICR mouse at 10 mg/kg measured up to 24 hrs by LC-MS/MS analysis; assay type: ADME, organism-based; conditions: in vivo
[20] = Metabolic stability in mouse liver microsomes assessed as intrinsic clearance measured up to 120 mins by LC-MS/MS analysis; assay type: ADME, Microsome; conditions: read-out: CLH
[21] = target: T1, Protein cereblon/Non-receptor tyrosine-protein kinase TYK2; assay: PROTAC activity at CRBN/TYK2 in human HaCaT cells assessed as induction of degradation of TYK2 measured after 10 hrs by Western blot analysis; assay type: cell-based; conditions: dose 1-100 nM, tested as the 2H-labelled form
Target sequence in this assay (P29597 whole entry, looked up): as the sequence (P29597 whole entry, looked up) above
Target sequence in this assay (Q96SW2 whole entry, looked up): as the sequence (Q96SW2 whole entry, looked up) above

[22] = target: T1, Protein cereblon/Non-receptor tyrosine-protein kinase TYK2; assay: PROTAC activity at CRBN/TYK2 in human Jurkat cells assessed as induction of degradation of TYK2 measured after 10 hrs by Western blot analysis; assay type: cell-based
Target sequence in this assay (P29597 whole entry): as the sequence (P29597 whole entry, looked up) above
Target sequence in this assay (Q96SW2 whole entry): as the sequence (Q96SW2 whole entry, looked up) above

SMILES: C[C@@H]1C[C@@H]([C@H](O)CC2CC(=O)NC(=O)C2)C(=O)[C@@H](C)C1
- Activity [1]: Active

SMILES: CNC(=O)c1cnc(Nc2ccc(C(=O)N3CCC(CN4CCN(c5ccc6c(c5)C(=O)N(C5CCC(=O)NC5=O)C6=O)CC4)CC3)cn2)cc1Nc1cccc(-c2ncc(F)cn2)c1OC (centres undefined)
- Activity [2]: 78%
- Activity [3]: 2%
- Activity [4]: inactive

SMILES: CNC(=O)c1cnc(Nc2ccc(C(=O)NCCCCCCNc3cccc4c3C(=O)N(C3CCC(=O)NC3=O)C4=O)cn2)cc1Nc1cccc(-c2ncc(F)cn2)c1OC (centres undefined)
- Activity [2]: 48%
- Activity [4]: 69%

SMILES: CNC(=O)c1cnc(Nc2ccc(C(=O)N3CC(N4CCN(c5ccc6c(c5)C(=O)N(C5CCC(=O)NC5=O)C6=O)CC4)C3)cn2)cc1Nc1cccc(-c2ncc(F)cn2)c1OC (centres undefined)
- Activity [2]: 77%
- Activity [3]: 44%
- Activity [4]: 67%

SMILES: CNC(=O)c1cnc(Nc2ccc(C(=O)NCCCCCCCCNc3cccc4c3C(=O)N(C3CCC(=O)NC3=O)C4=O)cn2)cc1Nc1cccc(-c2ncc(F)cn2)c1OC (centres undefined)
- Activity [2]: 72%
- Activity [4]: 74%

SMILES: [2H]C([2H])([2H])NC(=O)c1nnc(NC(=O)C2CC2)cc1Nc1cccc(-c2ncn(C)n2)c1OC [DEUCRAVACITINIB]
- IC50 [5]: 405 nM
- IC50 [6]: 7.4 nM

SMILES: CNC(=O)c1cnc(Nc2ccc(C(=O)N(C)C3CCN(c4ccc5c(c4)C(=O)N(C4CCC(=O)NC4=O)C5=O)CC3)cn2)cc1Nc1cccc(-c2ncc(F)cn2)c1OC (centres undefined)
- Cmax [7]: 1490 ng/mL
- AUC(0-t) at 24 h [8]: 159 ng·h/mL
- Tmax [9]: 18 min
- Tmax [10]: 4.8 min
- AUC(0-t) at 24 h [11]: 712 ng·h/mL
- AUC(0-inf) [12]: 163 ng·h/mL
- Cmax [13]: 124 ng/mL
- Papp at 2 h, 10 µM [14]: 0.26 ×10⁻⁶ cm/s
- half-life [15]: 72 min
- half-life [16]: 41 min
- half-life [17]: 39.6 min
- AUC(0-inf) [18]: 717 ng·h/mL
- bioavailability [19]: 2.2%

SMILES: CNC(=O)c1cnc(Nc2ccc(C(=O)NCCCCCCNc3ccc4c(c3)C(=O)N(C3CCC(=O)NC3=O)C4=O)cn2)cc1Nc1cccc(-c2ncc(F)cn2)c1OC (centres undefined)
- Activity [2]: 46%
- Activity [4]: 62%

SMILES: CNC(=O)c1cnc(Nc2ccc(C(=O)N3CCN(C4CCN(c5ccc6c(c5)C(=O)N(C5CCC(=O)NC5=O)C6=O)CC4)CC3)cn2)cc1Nc1cccc(-c2ncc(F)cn2)c1OC (centres undefined)
- Activity [2]: 17%
- Activity [3]: inactive
- Activity [4]: 7%

SMILES: CNC(=O)c1cnc(Nc2ccc(C(=O)NCCNc3cccc4c3C(=O)N(C3CCC(=O)NC3=O)C4=O)cn2)cc1Nc1cccc(-c2ncc(F)cn2)c1OC (centres undefined)
- Activity [2]: 12%
- Activity [4]: 15%

SMILES: CNC(=O)c1cnc(Nc2ccc(C(=O)NCCCCCNc3ccc4c(c3)C(=O)N(C3CCC(=O)NC3=O)C4=O)cn2)cc1Nc1cccc(-c2ncc(F)cn2)c1OC (centres undefined)
- Activity [2]: 88%
- half-life [16]: 15 min
- Activity [4]: 65%
- CLint scaled [20]: 365 mL/min/kg

SMILES: CNC(=O)c1cnc(Nc2ccc(C(=O)NCCCCNc3cccc4c3C(=O)N(C3CCC(=O)NC3=O)C4=O)cn2)cc1Nc1cccc(-c2ncc(F)cn2)c1OC (centres undefined)
- Activity [2]: 26%
- half-life [16]: 24 min
- Activity [4]: 82%
- CLint scaled [20]: 228 mL/min/kg

SMILES: CNC(=O)c1cnc(Nc2ccc(C(=O)N3CC4(C3)CN(c3ccc5c(c3)C(=O)N(C3CCC(=O)NC3=O)C5=O)C4)cn2)cc1Nc1cccc(-c2ncc(F)cn2)c1OC (centres undefined)
- Activity [2]: 83%
- Activity [3]: 46%
- half-life [16]: 104 min
- Activity [4]: 68%
- CLint scaled [20]: 53 mL/min/kg

SMILES: CNC(=O)c1cnc(Nc2ccc(C(=O)N3CCC4(CC3)CCN(c3ccc5c(c3)C(=O)N(C3CCC(=O)NC3=O)C5=O)CC4)cn2)cc1Nc1cccc(-c2ncc(F)cn2)c1OC (centres undefined)
- Activity [2]: 65%
- Activity [3]: inactive
- Activity [4]: 13%

SMILES: CNC(=O)c1nnc(NC(=O)C2CC2)cc1Nc1cccc(-c2ncn(C)n2)c1OC
- Activity ([2]; tested as the 2H-labelled form): inactive
- Activity [21]: inactive
- Activity ([4]; tested as the 2H-labelled form): inactive

SMILES: CNC(=O)c1cnc(Nc2ccc(C(=O)N3CCC(CNc4ccc5c(c4)C(=O)N(C4CCC(=O)NC4=O)C5=O)CC3)cn2)cc1Nc1cccc(-c2ncc(F)cn2)c1OC (centres undefined)
- Activity [2]: 35%
- Activity [3]: 7%
- Activity [4]: 10%

SMILES: CNC(=O)c1cnc(Nc2ccc(C(=O)NCCOCCNc3cccc4c3C(=O)N(C3CCC(=O)NC3=O)C4=O)cn2)cc1Nc1cccc(-c2ncc(F)cn2)c1OC (centres undefined)
- Activity [2]: 32%
- Activity [4]: 66%

SMILES: CNC(=O)c1cnc(Nc2ccc(C(=O)NCCCNc3cccc4c3C(=O)N(C3CCC(=O)NC3=O)C4=O)cn2)cc1Nc1cccc(-c2ncc(F)cn2)c1OC (centres undefined)
- Activity [2]: 18%
- Activity [4]: 21%

SMILES: CNC(=O)c1cnc(Nc2ccc(C(=O)NCCCCCNc3cccc4c3C(=O)N(C3CCC(=O)NC3=O)C4=O)cn2)cc1Nc1cccc(-c2ncc(F)cn2)c1OC (centres undefined)
- Activity [2]: 86%
- DC50 [22]: 0.43 nM
- Activity [4]: 94%

SMILES: CNC(=O)c1cnc(Nc2ccc(C(=O)N3CC4(CCN(c5ccc6c(c5)C(=O)N(C5CCC(=O)NC5=O)C6=O)CC4)C3)cn2)cc1Nc1cccc(-c2ncc(F)cn2)c1OC (centres undefined)
- Activity [2]: 69%
- Activity [3]: 42%
- Activity [4]: 61%

SMILES: CNC(=O)c1cnc(Nc2ccc(C(=O)NCCCCNc3ccc4c(c3)C(=O)N(C3CCC(=O)NC3=O)C4=O)cn2)cc1Nc1cccc(-c2ncc(F)cn2)c1OC (centres undefined)
- Activity [2]: 42%
- Activity [4]: 48%

SMILES: CNC(=O)c1cnc(NC2CCN(CC3CCN(c4ccc5c(c4)C(=O)N(C4CCC(=O)NC4=O)C5=O)CC3)CC2)cc1Nc1cccc(-c2ncc(F)cn2)c1OC (centres undefined)
- Papp at 2 h, 10 µM [14]: < 0.1 ×10⁻⁶ cm/s
- half-life [16]: 62 min

SMILES: CNC(=O)c1cnc(Nc2ccc(C(=O)NCCOCCOCCNc3cccc4c3C(=O)N(C3CCC(=O)NC3=O)C4=O)cn2)cc1Nc1cccc(-c2ncc(F)cn2)c1OC (centres undefined)
- Activity [2]: 5%
- Activity [4]: 56%

SMILES: CNC(=O)c1cnc(Nc2ccc(C(=O)N3CC4(CC(Nc5ccc6c(c5)C(=O)N(C5CCC(=O)NC5=O)C6=O)C4)C3)cn2)cc1Nc1cccc(-c2ncc(F)cn2)c1OC (centres undefined)
- Activity [2]: 62%
- Activity [3]: 17%
- Activity [4]: 48%
